Data on eight molecules can be found in patent US11691968B2, “Compound having KDM5 inhibitory activity and pharmaceutical use thereof” (ONO PHARMACEUTICAL CO., LTD., priority 2020, dated 2023).

pIC50: −log10 of the molar value. Where two headings read alike, the source gives them in different places.

By pIC50 is commonly meant −log10 of the IC50, conventionally taken in molar units.

The nature of series [1]: Metabolic Stability in Human Liver Microsomes. The format is in vitro ADME. On the procedure: Metabolic Stability in Human Liver Microsomes
Human liver microsome (BD Gentest Corporation, Cat No. #452161) incubations were conducted in duplicate in 96-well plates. Each well contains 40 μL of 0.1 M potassium phosphate buffer (pH 7.4), 4.125 mM MgCl2, 0.625 mg/mL liver microsomes, and test compound (1.25 μM). After 5-min preincubation at 37° C., 10 uL of 5.0 mM NADPH in 0.1M potassium phosphate buffer was added to initiate the enzymatic reaction. The final component concentrations are 0.1M potassium phosphate buffer (pH 7.4), 1.0 mM NADPH, 3.3 mM MgCl2, 0.5 mg/mL liver microsomes, and test compound (1.0 μM). Reactions were terminated at 0 and 60 min by adding 200 μL of ice-cold acetonitrile containing internal standard.
LC-MS/MS analysis was conducted as specified below.
The remaining at 60 min (%) of test compound was calculated from the peak area ratio (test compound/internal standard) of samples collected 0 and 60 min after the start of the reaction according to the formula described below. Remaining at 60 min (%)=peak area ratio of sample collected at 60 min/peak area ratio of sample collected at 0 min×100 [Results]
On the technique in general: Liver microsomes are vesicles of endoplasmic reticulum, rich in cytochrome P450 enzymes.

The next series concerns the target KDM5A (Homo sapiens (Human), UniProt P29375). Briefly: Biochemical KDM5A Inhibition Assay (HTRF). Particulars: KDM5A protein, biotin-labelled H3K4-Me3 substrate. On the procedure:
Biochemical KDM5A Inhibition Assay
Using 384-well white Greiner784075 (Greiner), representative compounds were characterized for their inhibition of KDM5A using HTRF® technology (Cisbio Bioassays). Briefly, the test compounds, reference compounds, and DMSO control (typical compound concentration range 1 μM-[…], final assay concentration (FAC*) of DMSO 0.5%) were added to 384-well plate by the Echo® acoustic dispensing platform (Labcyte). Five (5) 1l of KDM5A protein (produced by the method described in Nat Chem Biol 12, 531-538 (2016)). (5-20 nM FAC*) in assay buffer (50 mM MES, 50 mM NaCl, 1 mM TCEP, 0.01% v/v Tween 20, 0.03% BSA, pH 6.5) was added to wells and plates were incubated for 10-20 minutes at 25 degrees celsius. Then, 5 μl of alpha-ketoglutaric acid (100 μM FAC*), biotin-labelled H3K4-Me3 substrate (Anaspec Cat #AS-64357-1; 200 nM FAC*), Fe(II)SO4 (100 μM FAC*) and ascorbic acid (2 mM FAC*) in assay buffer was added to wells and plates were incubated for 20 minutes at room temperature. The reaction was stopped with the addition of 10 μl of anti-H3K4-Me2-Eu(K) (Cisbio Bioassays Cat #61KA2KAH; 0.75 nM FAC**)+Streptavidin XL665 (Cisbio Bioassays Cat #610SAXLB; 25 nM FAC**) in HTRF detection buffer (Cisbio Bioassays Cat #62SDBRDF). The mixture was incubated for 30 minutes at room temperature before 340 nm excitation and measurement of dual emission at 620 nm and 665 run. *FAC: final assay concentration calculated based on 10 μl of the assay buffer**FAC: final assay concentration calculated based on 20 μl of the detection buffer
The raw data (a 665 nm and a 620 nm reading from each well) for individual assay plates were analyzed. The ratio of emissions was calculated using the following calculation: Ratio=(665 nm emission/620 nm emission)×10000. […] Compound IC50 values were calculated from graphs of % inhibition plotted against compound concentration, using a four parameter curve fit. [Results]

The nature of series [2]: Brain Concentration in Mice. The format is in vivo. The conditions noted are these: mouse, mice (C57BL/6), read-out: Unbound-Brain Concentration at 2 h at 1 mg/kg. On the procedure: Brain Concentration in Mice
Test compounds were orally administered to mice (C57BL/6) at 1 or 3 mg/kg. Brain samples were collected 2 h after the administration and homogenized with 3-fold volumes of distilled water.
LC-MS/MS analysis was conducted as specified below. Standard calibration samples were prepared using the same matrix and analyzed in the same manner.
Standard calibration samples were analyzed to calculate a regression equation from the peak area ratio (test compound/internal standard). The peak area ratio was determined for a measurement sample and assigned to the regression equation to calculate an assay value.

[3] abbreviates: 0.5 mg/mL liver microsomes, 1.0 μM test compound, 1.0 mM NADPH, 37° C., 60 min.
[4] abbreviates: po, orally administered, 1 mg/kg, brain 2 h after administration.
Where [5] appears, read: human, microsomes, 1 h, 1 μM, pH 7.4.
The mark [6] stands for this setting: brain, oral, 2 h, values with * obtained by proportional calculation from the 3 mg/kg data.

Sequence of KDM5A (P29375 whole entry): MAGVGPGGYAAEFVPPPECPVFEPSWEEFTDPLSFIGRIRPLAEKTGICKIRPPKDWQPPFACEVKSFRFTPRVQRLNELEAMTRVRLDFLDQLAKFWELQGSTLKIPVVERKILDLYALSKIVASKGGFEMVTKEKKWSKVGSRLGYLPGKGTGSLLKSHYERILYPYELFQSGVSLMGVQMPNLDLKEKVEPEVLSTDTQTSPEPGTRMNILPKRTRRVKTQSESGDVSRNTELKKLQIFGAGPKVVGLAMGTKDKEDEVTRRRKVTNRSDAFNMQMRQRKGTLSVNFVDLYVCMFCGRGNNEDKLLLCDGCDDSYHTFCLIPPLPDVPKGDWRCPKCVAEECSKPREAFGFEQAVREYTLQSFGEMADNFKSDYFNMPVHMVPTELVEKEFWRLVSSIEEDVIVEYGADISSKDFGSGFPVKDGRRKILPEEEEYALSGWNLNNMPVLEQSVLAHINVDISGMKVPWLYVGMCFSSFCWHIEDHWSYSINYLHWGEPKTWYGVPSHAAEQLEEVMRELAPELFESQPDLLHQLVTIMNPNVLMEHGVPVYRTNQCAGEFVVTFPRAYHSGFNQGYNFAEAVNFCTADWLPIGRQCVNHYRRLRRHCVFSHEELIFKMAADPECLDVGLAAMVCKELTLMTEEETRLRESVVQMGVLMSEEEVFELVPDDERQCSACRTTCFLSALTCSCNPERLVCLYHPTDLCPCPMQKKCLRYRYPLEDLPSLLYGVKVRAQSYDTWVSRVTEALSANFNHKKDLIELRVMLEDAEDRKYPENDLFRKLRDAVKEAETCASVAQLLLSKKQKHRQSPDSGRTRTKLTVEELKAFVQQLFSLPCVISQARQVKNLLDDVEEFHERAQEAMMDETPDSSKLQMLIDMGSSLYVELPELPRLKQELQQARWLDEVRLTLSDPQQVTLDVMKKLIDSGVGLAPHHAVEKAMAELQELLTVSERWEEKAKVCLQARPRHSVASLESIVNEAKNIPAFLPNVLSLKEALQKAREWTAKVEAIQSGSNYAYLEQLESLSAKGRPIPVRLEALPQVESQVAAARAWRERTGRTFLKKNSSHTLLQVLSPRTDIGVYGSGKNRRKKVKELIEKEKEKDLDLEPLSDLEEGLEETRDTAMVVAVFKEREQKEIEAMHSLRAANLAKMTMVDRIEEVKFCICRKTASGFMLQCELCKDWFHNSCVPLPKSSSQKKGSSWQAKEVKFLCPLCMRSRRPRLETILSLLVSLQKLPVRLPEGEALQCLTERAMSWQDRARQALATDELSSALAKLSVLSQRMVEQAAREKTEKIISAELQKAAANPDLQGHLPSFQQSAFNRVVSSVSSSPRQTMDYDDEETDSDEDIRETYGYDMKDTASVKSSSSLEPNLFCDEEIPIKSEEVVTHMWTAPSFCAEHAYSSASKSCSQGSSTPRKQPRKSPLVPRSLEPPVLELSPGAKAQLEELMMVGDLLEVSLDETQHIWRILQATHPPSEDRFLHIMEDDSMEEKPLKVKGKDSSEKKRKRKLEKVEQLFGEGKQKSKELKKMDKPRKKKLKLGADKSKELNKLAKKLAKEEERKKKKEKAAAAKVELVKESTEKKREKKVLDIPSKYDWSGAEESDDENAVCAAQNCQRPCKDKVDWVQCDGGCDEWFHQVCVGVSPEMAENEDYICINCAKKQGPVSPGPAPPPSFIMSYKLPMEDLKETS

Turning to `C[C@]1(C2=NOC3(CC3)C2)[C@@H]2CN(C(=O)c3cn(C4CC4)cn3)C[C@@H]21` [Example 85, (1-cyclopropyl-1H-imidazol-4-yl)[(1R,5S,6r)-6-methyl-6-(4-oxa-5-azaspiro[2.4]hept-5-en-6-yl)-3-azabicyclo[3.1.0]hex-3-yl]methanone], in series [1] (setting [3]), the “Metabolic stability in human liver microsomes (% remaining at 60 min)” value (“Metabolic stability … (% remaining at 60 min)” for short) was 98%. This molecule had a negative logarithm of the IC50 (pIC50) against KDM5A of 7.70. Besides, the concentration at 2 h in series [2] (setting [4]) came out at 76.7 ng/g.
Consider `CC1(C)CC([C@H]2[C@@H]3CN(C(=O)c4cn(C5(C)CC5)cn4)C[C@@H]32)=NO1` [Example 33, [(1R,5S,6r)-6-(5,5-dimethyl-4,5-dihydro-1,2-oxazol-3-yl)-3-azabicyclo[3.1.0]hex-3-yl][1-(1-methylcyclopropyl)-1H-imidazol-4-yl]methanone], for which, in series [1] (setting [5]), the “Metabolic stability … (% remaining at 60 min)” value worked out at 103%. The molecule further had a negative-log IC50 (pIC50) on KDM5A of 7.52. Besides, the concentration at 2 h in series [2] (setting [4]) was found to be 62.1 ng/g.
For `CC[C@H](C)n1cnc(C(=O)N2C[C@@H]3[C@H](C2)[C@H]3C2=NOC(C)(C)C2)c1` [Example 12, {1-[(2S)-butan-2-yl]-1H-imidazol-4-yl}[(1R,5S,6S)-6-(5,5-dimethyl-4,5-dihydro-1,2-oxazol-3-yl)-3-azabicyclo[3.1.0]hex-3-yl]methanone], in that order: 100%, 7.22 and 10.8 ng/g.
Take `O=C(c1cn(C2CC2)cn1)N1C[C@@H]2[C@H](C1)[C@H]2C1=NOC2(CC2)C1` [Example 51, (1-cyclopropyl-1H-imidazol-4-yl)[(1R,5S,6r)-6-(4-oxa-5-azaspiro[2.4]hept-5-en-6-yl)-3-azabicyclo[3.1.0]hex-3-yl]methanone]: in series [1] (setting [3]), the “Metabolic stability … (% remaining at 60 min)” value came out at 95%. Also, the negative-log IC50 (pIC50) against KDM5A is 7.70. Further, the concentration at 2 h in series [2] (setting [4]) is 55.3 ng/g.
Consider `CC(C)n1cnc(C(=O)N2C[C@@H]3[C@H](C2)[C@H]3C2=NOC(C)(C)C2)c1` [Example 1, [(1R,5S,6r)-6-(5,5-dimethyl-4,5-dihydro-1,2-oxazol-3-yl)-3-azabicyclo[3.1.0]hex-3-yl](1-isopropyl-1H-imidazol-4-yl)methanone], for which the “Metabolic stability … (% remaining at 60 min)” value in series [1] (setting [5]) is on record as 95%. The pIC50 on KDM5A was 7.70. In addition, the concentration at 2 h in series [2] (setting [6]) is 93.7 ng/g.
For the molecule `CC(C)c1cc(C(=O)N2C[C@@H]3[C@H](C2)[C@H]3C2=NOC(C)(C)C2)n[nH]1` [Example 88, [(1R,5S,6r)-6-(5,5-dimethyl-4,5-dihydro-1,2-oxazol-3-yl)-3-azabicyclo[3.1.0]hex-3-yl](5-isopropyl-1H-pyrazol-3-yl)methanone], the “Metabolic stability … (% remaining at 60 min)” value in series [1] (setting [5]) amounted to 95%. At KDM5A, this molecule had a negative logarithm of the IC50 (pIC50) of 7.15. In series [2] (setting [6]), the concentration at 2 h was 39.5 ng/g.
Take `CC1(C)CC([C@@]2(C)[C@@H]3CN(C(=O)c4cn(C5CC5)cn4)C[C@@H]32)=NO1` [Example 82, (1-cyclopropyl-1H-imidazol-4-yl)[(1R,5S,6r)-6-(5,5-dimethyl-4,5-dihydro-1,2-oxazol-3-yl)-6-methyl-3-azabicyclo[3.1.0]hex-3-yl]methanone]: the “Metabolic stability … (% remaining at 60 min)” value in series [1] (setting [5]) was found to be 104%. This molecule showed a negative logarithm of the IC50 (pIC50) on KDM5A of 7.52. For the same molecule, in series [2] (setting [4]), the concentration at 2 h stood at 57.4 ng/g.
For `CC(C)n1cnc(C(=O)N2C[C@@H]3[C@H](C2)[C@@]3(C)C2=NOC(C)(C)C2)c1` [Example 81, [(1R,5S,6r)-6-(5,5-dimethyl-4,5-dihydro-1,2-oxazol-3-yl)-6-methyl-3-azabicyclo[3.1.0]hex-3-yl](1-isopropyl-1H-imidazol-4-yl)methanone], in that order: 100%, 7.22 and 21.9 ng/g.
